Ends that are not written are not given here.
Experiments:
Test in all cases: CCK-8 cytotoxicity of the peptides
Settings in all cases: CCK-8 assay, peptide alone, Figure S1
[1] = test system: BEAS‐2B cells (human bronchial epithelial cells); type: cell-based
Protocol: (§1) Cell viability was detected by CCK8 assay (Beyotime Biotechnology, China) based on the universal protocol.[38] The ratio of cell viability was calculated as A treated/A control × 100%.

[2] = test system: A549 (lung adenocarcinoma cells); type: cell-based, human
Protocol: as §1

[3] = test system: NCI‐H1299 (lung adenocarcinoma cells); type: cell-based, human
Protocol: as §1

Measured: cytotoxicity

RGDGSRRRRPLGLAGRRRR [RR19]
no significant cytotoxicity: all assays above

RGDGSRRRRPLGLAGRRRRGSRGD [RD24]
no significant cytotoxicity: all assays above

RRRRPLGLAGRRRR [RR14]
no significant cytotoxicity: all assays above

From paper PMC10382604, “The mirrored cationic peptide as miRNA vehicle for efficient lung cancer therapy” (MedComm, 2023)
